This is an account of results in article PMC11990524, “Design and Synthesis of Novel 6-(Substituted phenyl)-[1,3]dioxolo[4′,5′:4,5]benzo[1,2-d]thiazole Compounds as Tyrosinase Inhibitors: In Vitro and In Vivo Insights” (Molecules, 2025).

Experiment [1] can be described thus: DPPH radical scavenging assay. The following applies: 500 μM; 30 min in the dark. Here is the method: DPPH radical scavenging activity was determined by mixing the DPPH solution with compounds 1–13, leaving it in the dark at 20 °C for 30 min, and measuring the optical density at 517 nm. Ascorbic acid (AA) was used as a positive control to compare the scavenging activity. All test samples were used at 500 μM.
An aliquot (20 μL) of test sample (compounds 1–13 and ascorbic acid [positive control]; 5 mM) in DMSO and 180 μL DPPH solution (0.2 mM) in methanol were mixed in each well of a 96-well plate. The mixed solution was kept in the dark at 18 °C for 30 min. A VE microplate reader was used to measure the optical density of each well at 517 nm.
(The DPPH test is a chemical assay of radical scavenging.)

Experiment [2] can be described thus: ABTS radical scavenging assay. Conditions: 100 μM. The procedure: The ABTS^+ radical solution was obtained by mixing ABTS and potassium persulfate, an oxidizing reagent, and test samples (1–13 and Trolox [positive control]; final concentration: 100 μM) were added to determine their ABTS^+ radical scavenging ability by measuring the optical density at 732 nm.
To prepare ABTS^•+ stock solution, equal amounts of ABTS (14 mM aqueous solution) and K2S2O8 (4.9 mM aqueous solution) were mixed and stored in the dark at 18 °C for 15 h. The prepared ABTS^•+ solution was diluted in ethanol to adjust the absorbance to 0.7 ± 0.01 at 732 nm. The test samples (Trolox [positive control] and compounds 1–13) were dissolved in a cosolvent of ethanol and DMSO (10:1 [v/v]). The adjusted ABTS^•+ solution (90 μL) and test sample (10 μL) were added to each well of a 96-well plate, and the plate was stored in a dark place at 18 °C for 2 min. The optical density was measured at 732 nm every min for 10 min. The test sample solutions were tested at a final concentration of 100 μM. The percentage of radical scavenging activity was calculated as follows: % Radical scavenging activity = 100 × [(Absc − Abst)/Absc], where Abst and Absc are optical densities of the test sample and control, respectively.

The next experiment addresses mushroom tyrosinase (Agaricus bisporus, UniProt C7FF04). The experiment can be described thus: Mushroom tyrosinase inhibitory activity assay (L-dopa or L-tyrosine as substrate). Format: biochemical. Conditions: 50 μM, read-out: Inhibition (%, Mean ± SEM) at 50 μM (converted). Here is the method: In the inhibition experiments, L-dopa and L-tyrosine were used as enzyme substrates.
The plate was incubated at 37 °C for 30 min, and absorbance of dopachrome formation was recorded spectrophotometrically at 475 nm using a VersaMax® Elisa (VE) microplate reader (Molecular Devices, San Jose, CA, USA) to determine tyrosinase inhibition activity. A VE microplate reader was used in all subsequent experiments to measure optical density. All experiments were carried out independently three times.

SMILES strings stand for the structures. Read-outs that look alike come from different tables or passages of the source. Some results are limits rather than exact numbers.

Sequence of mushroom tyrosinase (C7FF04 2-392): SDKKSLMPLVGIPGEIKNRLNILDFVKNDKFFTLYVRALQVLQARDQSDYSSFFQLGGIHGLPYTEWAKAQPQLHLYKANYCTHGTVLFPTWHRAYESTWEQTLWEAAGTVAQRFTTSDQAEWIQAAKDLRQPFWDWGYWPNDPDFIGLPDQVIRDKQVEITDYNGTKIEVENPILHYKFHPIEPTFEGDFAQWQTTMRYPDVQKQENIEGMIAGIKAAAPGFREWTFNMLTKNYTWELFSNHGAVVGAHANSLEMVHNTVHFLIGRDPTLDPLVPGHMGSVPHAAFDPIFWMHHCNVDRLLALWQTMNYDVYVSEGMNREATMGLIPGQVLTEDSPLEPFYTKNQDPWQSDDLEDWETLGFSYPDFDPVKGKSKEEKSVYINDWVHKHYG

Take `Oc1ccc(-c2nc3cc4c(cc3s2)OCO4)cc1O` [Compound 8, 4-([1,3]Dioxolo[4′,5′:4,5]benzo[1,2-d]thiazol-6-yl)benzene-1,2-diol]: the “DPPH radical scavenging (inhibition)” value in experiment [1] came to 82%. Besides, the “ABTS^+ radical scavenging activity (inhibition rate)” value in experiment [2] is recorded as 99%. Further, the inhibition at 50 µM on mushroom tyrosinase (substrate L-dopa) is 18.6%; at mushroom tyrosinase (substrate L-tyrosine), 4.95%.
Regarding `COc1cc(-c2nc3cc4c(cc3s2)OCO4)cc(OC)c1O` [Compound 10, 4-([1,3]Dioxolo[4′,5′:4,5]benzo[1,2-d]thiazol-6-yl)-2,6-dimethoxyphenol], the “ABTS^+ radical scavenging activity (inhibition rate)” value in experiment [2] is listed as 96%. Also, the inhibition at 50 µM on mushroom tyrosinase (substrate L-dopa) was 53.2%; at mushroom tyrosinase (substrate L-tyrosine), 0.54%.
The corresponding values for `COc1cc(-c2nc3cc4c(cc3s2)OCO4)ccc1O` [Compound 1, 4-([1,3]Dioxolo[4′,5′:4,5]benzo[1,2-d]thiazol-6-yl)-2-methoxyphenol] are above 77%, 1.7% and 25.9%.
Turning to `COc1cc(-c2nc3cc4c(cc3s2)OCO4)cc(OC)c1OC` [Compound 13, 6-(3,4,5-Trimethoxyphenyl)-[1,3]dioxolo[4′,5′:4,5]benzo[1,2-d]thiazole], the values for the inhibition at 50 µM at mushroom tyrosinase (substrate L-dopa) and at mushroom tyrosinase (substrate L-tyrosine) were 5% and 16.6%, respectively.
Take `COc1ccc(-c2nc3cc4c(cc3s2)OCO4)cc1` [Compound 3, 6-(4-Methoxyphenyl)-[1,3]dioxolo[4′,5′:4,5]benzo[1,2-d]thiazole]: the inhibition at 50 µM was 17.2% at mushroom tyrosinase (substrate L-dopa) and 11.1% at mushroom tyrosinase (substrate L-tyrosine).
As for `COc1ccc(-c2nc3cc4c(cc3s2)OCO4)c(OC)c1` [Compound 12, 6-(2,4-Dimethoxyphenyl)-[1,3]dioxolo[4′,5′:4,5]benzo[1,2-d]thiazole], the inhibition at 50 µM was 32.8% at mushroom tyrosinase (substrate L-dopa) and 10.6% on mushroom tyrosinase (substrate L-tyrosine).
Take `COc1ccc(-c2nc3cc4c(cc3s2)OCO4)cc1OC` [Compound 11, 6-(3,4-Dimethoxyphenyl)-[1,3]dioxolo[4′,5′:4,5]benzo[1,2-d]thiazole]: the inhibition at 50 µM on mushroom tyrosinase (substrate L-dopa) is 19.5%; at mushroom tyrosinase (substrate L-tyrosine) it was 0.82%.
Consider `O=C1O[C@H]([C@@H](O)CO)C(O)=C1O` [AA, Ascorbic acid, reference compound], for which, in experiment [1], the “DPPH radical scavenging (inhibition)” value was 96%.
As to `COc1ccc(-c2nc3cc4c(cc3s2)OCO4)cc1O` [Compound 4, 5-([1,3]Dioxolo[4′,5′:4,5]benzo[1,2-d]thiazol-6-yl)-2-methoxyphenol], the “ABTS^+ radical scavenging activity (inhibition rate)” value in experiment [2] is given as above 77%. The inhibition at 50 µM on mushroom tyrosinase (substrate L-dopa) is 63%; at mushroom tyrosinase (substrate L-tyrosine), 25.5%.
With `Oc1ccc(-c2nc3cc4c(cc3s2)OCO4)cc1Br` [Compound 6, 4-([1,3]Dioxolo[4′,5′:4,5]benzo[1,2-d]thiazol-6-yl)-2-bromophenol], the inhibition at 50 µM on mushroom tyrosinase (substrate L-dopa) was 27.9%; on mushroom tyrosinase (substrate L-tyrosine), 17%.
As to `Cc1c(C)c2c(c(C)c1O)CCC(C)(C(=O)O)O2` (stereo not drawn) [Trolox, reference compound], the “ABTS^+ radical scavenging activity (inhibition rate)” value in experiment [2] is 99%.
As for `Oc1c(Br)cc(-c2nc3cc4c(cc3s2)OCO4)cc1Br` [Compound 7, 4-([1,3]Dioxolo[4′,5′:4,5]benzo[1,2-d]thiazol-6-yl)-2,6-dibromophenol], the inhibition at 50 µM is 29.7% on mushroom tyrosinase (substrate L-dopa) and 17.7% at mushroom tyrosinase (substrate L-tyrosine).
For the molecule `CCOc1cc(-c2nc3cc4c(cc3s2)OCO4)ccc1O` [Compound 2, 4-([1,3]Dioxolo[4′,5′:4,5]benzo[1,2-d]thiazol-6-yl)-2-ethoxyphenol], in experiment [2], the “ABTS^+ radical scavenging activity (inhibition rate)” value was above 77%. The inhibition at 50 µM on mushroom tyrosinase (substrate L-dopa) was 50.3%; on mushroom tyrosinase (substrate L-tyrosine), 14.9%.

For orientation: inhibition means the percentage by which the read-out fell short of the control.
